The values that follow come from US20260240847A1, “COMPOUNDS WITH ANTI-TUMOR ACTIVITY AGAINST CANCER CELLS BEARING TYROSINE KINASE INHIBITOR RESISTANT EGFR MUTATIONS” (BOARD OF REGENTS, THE UNIVERSITY OF TEXAS SYSTEM, priority 2019, published 2026).

Holding throughout (experiment): Ba/F3 cell viability, Cell Titer Glo
In general terms: Cellular ATP, detected with luciferase, serves as a proxy for viable cell number.

In one test the target is EGFR E709K L858R (Homo sapiens, UniProt P00533, E709K/L858R). To be noted: read-out: IC50 Values; Ba/F3 cells expressing EGFR E709K L858R, 72 hours.
For another test, the target named is EGFR G719A (Homo sapiens, UniProt P00533, G719A). To be noted: read-out: IC50 Values; Ba/F3 cells expressing EGFR G719A, 72 hours.
The target in a further test is EGFR L747P (Homo sapiens, UniProt P00533, L747P). To be noted: read-out: IC50 Values; Ba/F3 cells expressing EGFR L747P, 72 hours.
The target in the next test is EGFR S768I V774M (Homo sapiens, UniProt P00533, S768I/V774M). To be noted: read-out: IC50 Values; Ba/F3 cells expressing EGFR S768I V774M, 72 hours.
The next test addresses EGFR N771dupN G724S (Homo sapiens, UniProt P00533, DUP771-771/G724S). The settings on record: read-out: IC50 Values; Ba/F3 cells expressing EGFR N771dupN G724S, 72 hours.
A further test concerns the target EGFR R776C (Homo sapiens, UniProt P00533, R776C). To be noted: read-out: IC50 Values; Ba/F3 cells expressing EGFR R776C, 72 hours.
The target of a further test is EGFR S784F (Homo sapiens, UniProt P00533, S784F). To be noted: read-out: IC50 Values; Ba/F3 cells expressing EGFR S784F, 72 hours.
The target of a further test is EGFR L833F (Homo sapiens, UniProt P00533, L833F). To be noted: read-out: IC50 Values; Ba/F3 cells expressing EGFR L833F, 72 hours.
For another test, the target named is EGFR L833V (Homo sapiens, UniProt P00533, L833V). To be noted: read-out: IC50 Values; Ba/F3 cells expressing EGFR L833V, 72 hours.
The target of another test is EGFR L861Q (Homo sapiens, UniProt P00533, L861Q). To be noted: read-out: IC50 Values; Ba/F3 cells expressing EGFR L861Q, 72 hours.
The target of a further test is EGFR Ex19del/C797S (Homo sapiens, UniProt P00533, C797S/DEL746-750). The settings on record: read-out: IC50 Values; Ba/F3 cells expressing EGFR Ex19del/C797S, 72 hours.
EGFR Ex19del/C797S, sequence (P00533 with tags, fused parts or gaps DEL746-750/C797S): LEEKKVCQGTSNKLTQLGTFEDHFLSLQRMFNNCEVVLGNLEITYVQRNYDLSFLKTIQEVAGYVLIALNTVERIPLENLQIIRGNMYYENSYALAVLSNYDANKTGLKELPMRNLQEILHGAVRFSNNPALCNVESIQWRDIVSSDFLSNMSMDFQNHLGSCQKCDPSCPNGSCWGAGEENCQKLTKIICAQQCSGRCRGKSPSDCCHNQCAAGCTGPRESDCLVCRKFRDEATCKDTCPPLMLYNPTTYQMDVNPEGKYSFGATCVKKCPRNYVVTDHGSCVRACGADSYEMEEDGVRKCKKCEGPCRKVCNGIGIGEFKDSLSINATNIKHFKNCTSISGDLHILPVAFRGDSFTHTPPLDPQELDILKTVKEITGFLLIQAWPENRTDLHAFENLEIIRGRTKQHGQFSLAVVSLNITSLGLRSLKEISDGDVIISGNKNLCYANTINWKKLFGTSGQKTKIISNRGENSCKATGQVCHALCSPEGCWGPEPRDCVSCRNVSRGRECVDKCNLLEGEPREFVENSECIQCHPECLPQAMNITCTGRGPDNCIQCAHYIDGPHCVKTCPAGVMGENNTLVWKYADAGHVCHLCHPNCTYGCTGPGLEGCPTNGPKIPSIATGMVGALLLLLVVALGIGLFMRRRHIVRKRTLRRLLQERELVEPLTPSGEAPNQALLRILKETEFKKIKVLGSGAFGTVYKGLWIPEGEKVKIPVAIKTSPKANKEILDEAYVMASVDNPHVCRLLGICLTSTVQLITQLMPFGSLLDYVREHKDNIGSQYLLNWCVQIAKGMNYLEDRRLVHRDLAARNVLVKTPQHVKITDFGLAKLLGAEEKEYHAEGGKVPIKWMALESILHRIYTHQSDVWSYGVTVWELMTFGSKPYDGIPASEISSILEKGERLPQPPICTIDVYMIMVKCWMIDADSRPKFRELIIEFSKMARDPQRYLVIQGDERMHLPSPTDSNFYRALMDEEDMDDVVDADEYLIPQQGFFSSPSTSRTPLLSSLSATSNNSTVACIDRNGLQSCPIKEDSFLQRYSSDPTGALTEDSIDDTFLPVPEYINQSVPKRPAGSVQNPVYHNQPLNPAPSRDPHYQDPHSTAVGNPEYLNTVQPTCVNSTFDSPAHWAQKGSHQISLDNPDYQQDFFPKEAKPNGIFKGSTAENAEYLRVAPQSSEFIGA
Another test deals with EGFR L858R/C797S (Homo sapiens, UniProt P00533, C797S/L858R). To be noted: read-out: IC50 Values; Ba/F3 cells expressing EGFR L858R/C797S, 72 hours.
For another test, the target named is EGFR L858R/L718V (Homo sapiens, UniProt P00533, L718V/L858R). To be noted: read-out: IC50 Values; Ba/F3 cells expressing EGFR L858R/L718V, 72 hours.
The target in the next test is EGFR L858R/V834L (Homo sapiens, UniProt P00533, L858R/V834L). To be noted: read-out: IC50 Values; Ba/F3 cells expressing EGFR L858R/V834L, 72 hours.
For another test, the target named is EGFR L858R T790M L718V (Homo sapiens, UniProt P00533, L718V/L858R/T790M). The settings on record: read-out: IC50 Values; Ba/F3 cells expressing EGFR L858R T790M L718V, 72 hours.
The target in the next test is EGFR Ex19del/T790M/L792H (Homo sapiens, UniProt P00533, DEL746-750/L792H/T790M). To be noted: read-out: IC50 Values; Ba/F3 cells expressing EGFR Ex19del/T790M/L792H, 72 hours.
EGFR Ex19del/T790M/L792H, sequence (P00533 with tags, fused parts or gaps DEL746-750/T790M/L792H): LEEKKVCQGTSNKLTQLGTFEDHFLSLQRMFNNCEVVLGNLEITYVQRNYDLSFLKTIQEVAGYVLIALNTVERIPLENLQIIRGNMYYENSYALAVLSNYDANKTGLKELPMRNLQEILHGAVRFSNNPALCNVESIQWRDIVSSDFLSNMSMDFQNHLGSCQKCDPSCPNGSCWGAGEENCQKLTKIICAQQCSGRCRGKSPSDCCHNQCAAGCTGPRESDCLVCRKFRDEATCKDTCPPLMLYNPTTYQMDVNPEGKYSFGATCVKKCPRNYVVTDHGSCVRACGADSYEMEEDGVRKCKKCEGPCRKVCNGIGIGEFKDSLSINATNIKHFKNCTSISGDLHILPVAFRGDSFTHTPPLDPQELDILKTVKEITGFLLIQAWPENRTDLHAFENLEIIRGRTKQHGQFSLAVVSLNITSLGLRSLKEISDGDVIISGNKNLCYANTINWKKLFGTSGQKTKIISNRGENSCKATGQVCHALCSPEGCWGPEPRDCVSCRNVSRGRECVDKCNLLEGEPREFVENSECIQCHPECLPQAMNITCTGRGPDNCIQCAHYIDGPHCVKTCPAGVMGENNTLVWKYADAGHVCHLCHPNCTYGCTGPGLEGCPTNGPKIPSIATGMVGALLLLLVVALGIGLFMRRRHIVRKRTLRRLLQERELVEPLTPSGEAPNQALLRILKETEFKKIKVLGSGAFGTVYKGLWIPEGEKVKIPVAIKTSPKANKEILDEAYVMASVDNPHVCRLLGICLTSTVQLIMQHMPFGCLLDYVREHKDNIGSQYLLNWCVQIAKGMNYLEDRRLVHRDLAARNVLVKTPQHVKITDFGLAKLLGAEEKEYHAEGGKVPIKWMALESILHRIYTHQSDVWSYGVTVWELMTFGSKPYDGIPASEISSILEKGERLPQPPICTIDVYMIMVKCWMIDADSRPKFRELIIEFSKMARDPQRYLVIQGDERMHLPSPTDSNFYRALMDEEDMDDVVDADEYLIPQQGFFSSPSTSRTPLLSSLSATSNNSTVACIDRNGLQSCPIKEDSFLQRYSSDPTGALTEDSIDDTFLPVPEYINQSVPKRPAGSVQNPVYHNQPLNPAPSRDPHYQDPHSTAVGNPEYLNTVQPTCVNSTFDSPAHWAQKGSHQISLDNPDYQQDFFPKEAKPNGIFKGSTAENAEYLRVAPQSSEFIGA
The next test has as its target EGFR T790M (Homo sapiens, UniProt P00533, T790M). To be noted: read-out: IC50 Values; Ba/F3 cells expressing EGFR T790M, 72 hours.
The target in a further test is EGFR S768I/T790M (Homo sapiens, UniProt P00533, S768I/T790M). The settings on record: read-out: IC50 Values; Ba/F3 cells expressing EGFR S768I/T790M, 72 hours.
The target of the next test is EGFR G719A T790M (Homo sapiens, UniProt P00533, G719A/T790M). The settings on record: read-out: IC50 Values; Ba/F3 cells expressing EGFR G719A T790M, 72 hours.
In the next test the target is EGFR Ex19delT790M (Homo sapiens, UniProt P00533, DEL746-750/T790M). To be noted: read-out: IC50 Values; Ba/F3 cells expressing EGFR Ex19delT790M, 72 hours.
EGFR Ex19delT790M, sequence (P00533 with tags, fused parts or gaps DEL746-750/T790M): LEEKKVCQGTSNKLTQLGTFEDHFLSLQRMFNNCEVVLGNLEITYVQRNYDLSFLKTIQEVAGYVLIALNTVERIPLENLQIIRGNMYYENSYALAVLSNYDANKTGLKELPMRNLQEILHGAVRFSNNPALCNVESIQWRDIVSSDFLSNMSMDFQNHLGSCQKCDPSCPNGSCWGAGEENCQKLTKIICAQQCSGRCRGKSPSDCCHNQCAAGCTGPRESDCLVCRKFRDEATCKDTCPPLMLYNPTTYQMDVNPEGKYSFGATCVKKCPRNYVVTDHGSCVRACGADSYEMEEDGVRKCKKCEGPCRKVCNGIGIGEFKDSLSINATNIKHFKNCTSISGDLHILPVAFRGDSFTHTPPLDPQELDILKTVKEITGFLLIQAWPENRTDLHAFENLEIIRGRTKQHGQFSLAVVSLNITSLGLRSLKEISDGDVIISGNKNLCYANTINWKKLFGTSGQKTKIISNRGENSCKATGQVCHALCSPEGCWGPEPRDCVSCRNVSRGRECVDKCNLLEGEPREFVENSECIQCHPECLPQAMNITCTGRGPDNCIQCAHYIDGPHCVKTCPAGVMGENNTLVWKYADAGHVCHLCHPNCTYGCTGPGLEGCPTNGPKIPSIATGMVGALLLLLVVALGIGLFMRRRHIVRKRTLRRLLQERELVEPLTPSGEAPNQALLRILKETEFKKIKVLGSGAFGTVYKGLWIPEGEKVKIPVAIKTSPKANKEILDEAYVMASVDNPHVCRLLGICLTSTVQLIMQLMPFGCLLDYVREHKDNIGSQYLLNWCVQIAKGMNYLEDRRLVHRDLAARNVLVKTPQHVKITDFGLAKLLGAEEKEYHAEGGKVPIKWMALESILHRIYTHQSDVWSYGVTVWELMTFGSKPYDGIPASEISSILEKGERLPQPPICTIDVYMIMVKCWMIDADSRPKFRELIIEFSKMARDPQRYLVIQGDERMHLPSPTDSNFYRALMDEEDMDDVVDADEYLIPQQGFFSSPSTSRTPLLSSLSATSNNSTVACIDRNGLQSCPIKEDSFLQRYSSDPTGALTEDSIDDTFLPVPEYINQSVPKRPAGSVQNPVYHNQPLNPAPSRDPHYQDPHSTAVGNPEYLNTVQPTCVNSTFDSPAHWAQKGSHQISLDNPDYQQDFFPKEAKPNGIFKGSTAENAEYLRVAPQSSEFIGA

EGFR T790M, sequence (P00533 25-1210 T790M): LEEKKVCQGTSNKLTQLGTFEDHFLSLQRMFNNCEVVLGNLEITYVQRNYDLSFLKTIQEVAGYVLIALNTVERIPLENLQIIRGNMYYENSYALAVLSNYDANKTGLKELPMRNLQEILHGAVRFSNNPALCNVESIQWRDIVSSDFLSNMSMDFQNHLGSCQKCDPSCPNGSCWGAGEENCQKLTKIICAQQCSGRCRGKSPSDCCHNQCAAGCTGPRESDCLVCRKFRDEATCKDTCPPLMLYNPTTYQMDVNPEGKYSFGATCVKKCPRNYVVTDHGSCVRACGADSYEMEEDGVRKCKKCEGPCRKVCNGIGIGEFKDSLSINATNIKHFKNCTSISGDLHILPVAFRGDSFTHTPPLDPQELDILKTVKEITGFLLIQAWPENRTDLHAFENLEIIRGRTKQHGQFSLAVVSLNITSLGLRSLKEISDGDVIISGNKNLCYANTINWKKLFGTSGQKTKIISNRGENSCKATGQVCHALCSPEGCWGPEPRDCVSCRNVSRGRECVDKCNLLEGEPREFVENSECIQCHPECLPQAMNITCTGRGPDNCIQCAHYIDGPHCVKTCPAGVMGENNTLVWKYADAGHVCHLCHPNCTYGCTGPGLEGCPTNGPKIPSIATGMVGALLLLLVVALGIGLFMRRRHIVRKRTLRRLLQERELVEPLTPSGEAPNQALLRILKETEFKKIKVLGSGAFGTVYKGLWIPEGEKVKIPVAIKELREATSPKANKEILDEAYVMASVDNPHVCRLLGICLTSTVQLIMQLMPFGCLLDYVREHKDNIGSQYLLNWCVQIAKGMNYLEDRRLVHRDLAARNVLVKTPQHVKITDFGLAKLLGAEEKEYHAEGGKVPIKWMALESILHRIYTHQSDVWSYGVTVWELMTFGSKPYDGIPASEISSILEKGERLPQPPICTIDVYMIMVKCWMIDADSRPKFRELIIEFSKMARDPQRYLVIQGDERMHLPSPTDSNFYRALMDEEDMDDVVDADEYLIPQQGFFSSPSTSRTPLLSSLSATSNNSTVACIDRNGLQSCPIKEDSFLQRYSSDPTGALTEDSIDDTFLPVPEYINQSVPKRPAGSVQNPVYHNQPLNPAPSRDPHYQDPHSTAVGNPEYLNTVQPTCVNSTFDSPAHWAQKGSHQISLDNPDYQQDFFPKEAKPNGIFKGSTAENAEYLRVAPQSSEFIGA
Protocol for EGFR E709K L858R: (§1) Cell viability was determined by the Cell Titer Glo assay.
(§2) Briefly, stable Ba/F3 cell lines were generated by retroviral transduction of Ba/F3 cell line for 12 hours. […] Three days after transduction, 2 μg/ml puromycin (Invitrogen) was added to the RPMI media. Cell lines were then grown in the absence of IL-3 for two weeks and cell viability was assessed every three days using the Cell Titer Glo assay (Progema).
(§3) Briefly, 2000-3000 cells per well were plated in 384-well plates (Greiner Bio-One) in technical triplicate. Cells were treated with seven different concentrations of tyrosine kinase inhibitors or vehicle alone at a final volume of 40 μL per well. After 3 days, 11 μL of Cell Titer Glo was added to each well. Plates were shaken for 15 minutes, and bioluminescence was determined using a FLUOstar OPTIMA multi-mode micro-plate reader (BMG LABTECH). Bioluminescence values were normalized to DMSO treated cells, and normalized values were plotted in GraphPad Prism using non-linear regression fit to normalized data with a variable slope.
Protocol for EGFR Ex19del/C797S: (§4) The transforming capability of the mutations was then evaluated by sustained cell viability following IL-3 deprivation. Activating EGFR mutant Ba/F3 cells were then screened against EGFR TKIs. Cell viability was determined by the Cell Titer Glo assay.
(§5) Ba/F3 cells expressing acquired atypical mutations spanning exons 18-21 were treated with inhibitors for 72 hours. […] Briefly, stable Ba/F3 cell lines were generated by retroviral transduction of Ba/F3 cell line for 12 hours. […] Three days after transduction, 2 μg/ml puromycin (Invitrogen) was added to the RPMI media. Cell lines were then grown in the absence of IL-3 for two weeks and cell viability was assessed every three days using the Cell Titer Glo assay (Progema).
as §3
Protocol for EGFR Ex19del/T790M/L792H: as §1, §2, §3
Protocol for EGFR Ex19delT790M: as §1, §2, §3
Protocol for EGFR G719A T790M: as §1, §3
Protocol for EGFR L747P: as §1, §2, §3
Protocol for EGFR L833F: as §1, §2, §3
Protocol for EGFR L833V: as §1, §2, §3
Protocol for EGFR L858R T790M L718V: as §1, §2, §3
Protocol for EGFR L858R/C797S: as §4, §5, §3
Protocol for EGFR L858R/L718V: as §4, §5, §3
Protocol for EGFR L858R/V834L: as §4, §5, §3
Protocol for EGFR L861Q: as §1, §2, §3
Protocol for EGFR N771dupN G724S: as §1, §2, §3
Protocol for EGFR R776C: as §1, §2, §3
Protocol for EGFR S768I V774M: as §1, §2, §3
Protocol for EGFR S768I/T790M: as §1, §3
Protocol for EGFR S784F: as §1, §2, §3
Protocol for EGFR T790M: as §1, §2, §3

A word on the IC50: it is the concentration needed to halve the response being measured. In the case of `C=CC(=O)N1CC[C@@H](Oc2nc(Nc3ccc(N4CCC(N5CCN(C)CC5)CC4)cc3)c(C(N)=O)nc2CC)C1` [Naquotinib], the half-maximal inhibitory concentration (IC50) turned out to be 11 nM on EGFR E709K L858R; 18.1 nM on EGFR G719A; 472 nM on EGFR L747P; 66.2 nM at EGFR S768I V774M; 375 nM at EGFR N771dupN G724S; 575 nM at EGFR R776C. Also, the IC50 is 70.2 nM on EGFR S784F; 411 nM at EGFR L833F; 402 nM at EGFR L833V; 77.4 nM on EGFR L861Q; 1540 nM on EGFR Ex19del/C797S; 709 nM at EGFR L858R/C797S. Besides, the IC50 turned out to be 18.8 nM at EGFR L858R/L718V; 7.19 nM at EGFR L858R/V834L; 4.03 nM on EGFR L858R T790M L718V; 4.75 nM on EGFR Ex19del/T790M/L792H; 54.4 nM at EGFR T790M; 19.2 nM at EGFR S768I/T790M. Further, the figures for the IC50 at EGFR G719A T790M and at EGFR Ex19delT790M were 11.7 nM and 1.41 nM, respectively.
